Read-outs that look alike come from different tables or passages of the source.
How the values were obtained:
ferrets = experiment: Pro-emetic activity in ferrets; format: in vivo, ferret; details: 15 min IV infusion at 1 mg/kg/min, administered alone, 6 ferrets, 45 min
Excerpt: Immediately prior to dosing, food and water were removed.

[1] = Pharmacokinetic study in domestic pigs, IV infusion; format: in vivo, pig
GABAA receptor = experiment: Rat hippocampal brain slice electrophysiology assay; format: cell-based; details: in the presence of EC20 of muscimol (2 μM); CA1 population spike; read-out: EC50, potentiation of the action of agonists at the GABAA receptor
Description: Rat hippocampal slices were prepared as follows: Male Wistar rats (100-125 g) were anesthetized with isoflurane and decapitated, the brains quickly removed, collected, blocked, and cut using a vibratome (OTS-4000, Electron Microscope Sciences) into 400 micron (μm) transverse sections. Slices were transferred to a warmed (33° C.), submerged tissue-recording chamber perfused at 2.5-3 ml/min with modified artificial cerebrospinal fluid (120 mM sodium chloride, 3.5 mM, potassium chloride, 2.5 mM calcium chloride, 1.3 mM magnesium chloride, 1.25 mM sodium phosphate, 26 mM sodium carbonate, 10 mM glucose, saturated with 95% oxygen, pH 7.4). […]
Electrophysiology testing was accomplished as follows: A glass rod electrode (1-2 μM tip diameter) was filled with 3M sodium chloride (NaCl) and placed in the CA1 pyramidal cell layer of hippocampal slices. […] Population responses of the CA1 pyramidal cells were recorded with an Axoprobe-1A (Axon Instruments, Molecular Devices, Sunnyvale, Calif.). pCLAMP 8.2 (Axon Instruments) was used for acquiring the data, and Clampfit (Axon Instruments) was used for analysis. […] Peak to peak amplitude of the population response from each stimulus was measured as an indicator of cell excitability. […]
Data were acquired and analyzed using Clampfit and Excel (Microsoft), and reported as mean and individual values.

pigs = experiment: in vivo; details: 384 μg per kg per min, pigs
Description: Experiments were performed on commercial farm-bred swine of either sex (mean weight 33.6 kg). Anesthesia was induced with isoflurane. Intravascular access was obtained from an ear vein. Each pig was intubated and mechanically ventilated. Tissue oxygenation was monitored using continuous pulse oximetry placed on the tongue. Ventilation was monitored using an inspired/expired gas analyzer that measured oxygen, carbon dioxide, and potent inhalation agent concentrations. Ventilator settings were adjusted as needed to maintain steady state.
ECG was monitored throughout the study. Arterial blood pressure was monitored through the cannulated left femoral artery. MAP, systolic and diastolic arterial pressures and heart rate were collected every 5 seconds. An internal jugular vein was cannulated with a pulmonary artery catheter for thermodilution estimates of cardiac output and blood temperature. Body temperature was maintained at 37° C. Instrumentation for EEG monitoring was accomplished using an adhesive electrode array over the fronto-occipital regions (Aspect Medical. Norwood, Mass., USA).
Metabolic and hemodynamic parameters for each group were compared at multiple time points using an unpaired two-tailed Student t test. To account for multiple comparisons and maintain the probability of a type I error below 0.05, P values less than 0.025 were considered significant.

Beagle dogs = details: dogs
rats = experiment: Separate rat study, bolus IV, 1% in cremaphor, sleep time; format: in vivo; details: 7 mg/kg bolus IV, rats
male Sprague-Dawley rats = experiment: Anesthetic effects in rats, bolus IV, Loss of Righting Reflex (LORR); format: in vivo, rat; details: rats
Description: (§1) Also measured was minimum dose to achieve LORR and maximum tolerated dose (MTD).
(§2) The ranges of doses studied were 1.9, 2.3, 3.0, 7.0, 13.7, 14.0 and 15.2 mg/kg for Compound 1 and 3.5, 4.0, 7.0 and 14.0 mg/kg for […].

[2] = as above; format: in vivo, rat; details: male, Sprague-Dawley, rat, in vivo; bolus IV, rats; read-out: MTD (maximum tolerated dose)
Description: as §1, §2

mongrel dogs = experiment: Anesthetic and hemodynamic effects in chronically instrumented mongrel dogs, total intravenous anesthesia; format: in vivo, dog
Description: Assessments included hemodynamic performance parameters such as blood pressure, heart rate, and cardiac output as well as clinical chemistry parameters and EEG analysis.
General anesthesia was induced in the dogs by IV administration of 7 mg/kg […], and the dogs were tracheally intubated and mechanically ventilated. General anesthesia was maintained using 2.2% end-tidal sevoflurane in oxygen. A thoracotomy was performed at the fifth left intercostal space, and heparin-filled catheters were placed in the proximal descending thoracic aorta (P50 pressure transducer Gould, Oxnard, Calif.), and in the right and left atria to provide IV access. An ultrasonic transit-time flow probe (T108, Transonic Systems, Ithaca, N.Y.) was placed around the ascending thoracic aorta. A […] Doppler flow probe (Model HDP-20-3.5, Triton Surgical Technologies, San Diego, Calif.) was placed around the left anterior descending coronary artery. Six MHz sonomicrometer crystals (Hartley, Houston, Tex.) were implanted in the subendocardium. A high fidelity micromanometer (P7, Konigsberg Instruments, Pasadena, Calif.) was inserted into the left ventricle. […]
The dogs were fasted overnight. […] EEG was recorded continuously during the experiment. Arterial blood gas and chemistry measures included pH, pO2, sO2, pCO2, tCO2, carbonate, potassium, sodium, and base excess, and were measured immediately following blood draws using a blood gas and chemistry analyzer (ABL-505, Radiometer, Copenhagen). […] Following stabilization, baseline measurements of EEG, hemodynamics, ECG, and blood gases were recorded. Blood samples were drawn for PK and clinical chemistry, and pressure volume loops were generated and data recorded.
Following induction, the dogs were tracheally intubated, and mechanically ventilated using 50% oxygen in nitrogen throughout the subsequent drug infusion and recovery periods. […] MAP was monitored continuously, and dosing was discontinued immediately if MAP decreased below 50 mmHg at any time or if the heart rate increased over 200 beats per minute. […]

[3] = target: T1, phosphodiesterase 2 (PDE2) (Homo sapiens, UniProt O00408); experiment: Cerep Diversity Profile: enzymes, PDE2; format: biochemical; details: tested at 10 μM; read-out: inhibition of control binding, PDE2
T1 construct: Cerep, Inc
T1 sequence (O00408 whole entry): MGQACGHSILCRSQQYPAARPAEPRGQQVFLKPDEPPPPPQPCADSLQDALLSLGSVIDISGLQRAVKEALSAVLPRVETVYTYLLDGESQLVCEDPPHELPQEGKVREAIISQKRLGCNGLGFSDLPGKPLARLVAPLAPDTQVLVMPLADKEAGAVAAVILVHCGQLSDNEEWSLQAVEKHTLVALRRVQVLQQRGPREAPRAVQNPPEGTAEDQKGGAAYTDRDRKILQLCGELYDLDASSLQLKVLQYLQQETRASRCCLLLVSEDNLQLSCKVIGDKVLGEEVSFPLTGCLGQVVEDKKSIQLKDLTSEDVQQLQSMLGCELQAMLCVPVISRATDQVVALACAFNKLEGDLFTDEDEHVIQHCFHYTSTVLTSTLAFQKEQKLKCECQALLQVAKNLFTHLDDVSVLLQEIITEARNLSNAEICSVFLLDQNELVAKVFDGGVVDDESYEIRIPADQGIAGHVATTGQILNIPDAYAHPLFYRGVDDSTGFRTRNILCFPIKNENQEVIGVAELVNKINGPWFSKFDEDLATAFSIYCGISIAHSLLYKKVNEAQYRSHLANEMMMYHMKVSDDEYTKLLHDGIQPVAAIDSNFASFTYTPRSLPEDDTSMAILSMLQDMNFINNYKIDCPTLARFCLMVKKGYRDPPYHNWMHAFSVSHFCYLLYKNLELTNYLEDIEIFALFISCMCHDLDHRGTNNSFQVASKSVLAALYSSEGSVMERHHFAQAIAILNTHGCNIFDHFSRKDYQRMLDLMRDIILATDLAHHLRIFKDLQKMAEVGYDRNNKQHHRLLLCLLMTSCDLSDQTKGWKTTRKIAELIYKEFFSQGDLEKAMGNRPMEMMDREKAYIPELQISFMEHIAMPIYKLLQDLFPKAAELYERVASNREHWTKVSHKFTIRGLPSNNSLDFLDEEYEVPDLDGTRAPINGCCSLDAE

Question: Which results are given for `CC[C@@H](C)c1cccc([C@H](C)CC)c1O` [Compound 1]?
Answer: episodes of vomiting or retching (ferrets): did not produce any episodes of vomiting or retching; Clearance ([1]; pig, IV infusion): exceeded estimated hepatic blood flow; metabolic pathway ([1]; pigs): glucuronidation in the 1-position with the 4-position being subject to hydroxylation followed by glucuronide and sulfate conjugation; EC50 (GABAA receptor): 2500 nM; IV infusion time producing maximal suppression of BIS (pigs): 14.7 ± 3.8 min; duration of anesthesia (sleep time) (Beagle dogs; 5 mg/kg bolus IV): 24 min; duration of anesthesia (sleep time) (Beagle dogs; 10 mg/kg bolus IV): 43 min; duration of anesthesia (sleep time) (Beagle dogs; 15 mg/kg bolus IV): 77 min; duration of anesthesia (sleep time) (Beagle dogs; 30 mg/kg bolus IV): 105 min; Sleep Time (duration of anesthesia) (rats): 23 min; deaths (male Sprague-Dawley rats; 15.2 mg/kg bolus IV): Two rats died; HD50 (dose required to cause 50% of the rats to lose righting reflex) (male Sprague-Dawley rats; bolus IV): 2.1 mg/kg; HD7min (dose required to produce 7 minutes of anesthesia) (male Sprague-Dawley rats; bolus IV): 2.3 mg/kg; TI (therapeutic index, ratio of MTD to HD7 min) (male Sprague-Dawley rats; bolus IV): 6.1; MTD [2]: 14 mg/kg; MAP and heart rate results compared to propofol (mongrel dogs): no statistically significant differences; Cardiac output versus baseline (mongrel dogs; IV bolus then stepwise IV infusions 0.25-2.0 mg/kg/min): no statistically significant reduction; inhibition at 10 µM [3]: > 20%
